Results taken from ChEMBL document CHEMBL6153114, “Property-Based Design of Xanthine Derivatives as Potent and Orally Available TRPC4/5 Inhibitors for Depression and Anxiety” (J Med Chem, 2025).

Columns and labels:
in vitro [1] = details: human, liver microsomes
in vitro [2] = details: rat, liver microsomes
in vitro [3] = details: mouse, liver microsomes
in vivo [4] = details: ICR, mouse, plasma, po, 10 mg/kg
in vivo [5] = details: ICR, mouse, plasma, po, 10 mg/kg; remark: listed apart in the source

| half-life at 1 h, 1 µM (in vitro [1]) [min] | half-life at 1 h, 1 µM (in vitro [2]) [min] | half-life at 1 h, 1 µM (in vitro [3]) [min] | Compound | concentration at 1 h (in vivo [4]) [ng/mL] | concentration at 4 h (in vivo [5]) [ng/mL] |
| --- | --- | --- | --- | --- | --- |
| 12 | 1 | 4 | Cn1c(=O)n(CCCO)c(=O)c2c1cc(C1CC1C1CCCC1)n2Cc1ccc(Cl)cc1 (stereo unspecified) | – | – |
| 141 | 40 | 115 | Cn1c(=O)n(CCCO)c(=O)c2c1cc(/C=C/c1ccc(Cl)cc1)n2Cc1ccc(Cl)cc1 | – | – |

| Compound | half-life at 1 h, 1 µM (in vitro [1]) [min] | half-life at 1 h, 1 µM (in vitro [2]) [min] | half-life at 1 h, 1 µM (in vitro [3]) [min] | concentration at 1 h (in vivo [4]) [ng/mL] | concentration at 4 h (in vivo [5]) [ng/mL] |
| --- | --- | --- | --- | --- | --- |
| Cn1c(=O)n(CCCO)c(=O)c2c1nc(Oc1cccc(Cl)c1)n2Cc1ccc(Cl)cc1 | 117 | 4 | 12 | 802 | 398 |
